In US20230117324A1, “OXAZINE MONOACYLGLYCEROL LIPASE (MAGL) INHIBITORS” (Hoffmann-La Roche Inc., priority 2018, published 2023):

target: T1, MAGL (Homo sapiens, UniProt Q99685); test: MAGL inhibition, 2-AG assay (hydrolysis of 2-arachidonoylglycerol, arachidonic acid by mass spectrometry); format: biochemical; conditions: 2-AG assay (footnote [b])
T1 sequence (Q99685 1-303): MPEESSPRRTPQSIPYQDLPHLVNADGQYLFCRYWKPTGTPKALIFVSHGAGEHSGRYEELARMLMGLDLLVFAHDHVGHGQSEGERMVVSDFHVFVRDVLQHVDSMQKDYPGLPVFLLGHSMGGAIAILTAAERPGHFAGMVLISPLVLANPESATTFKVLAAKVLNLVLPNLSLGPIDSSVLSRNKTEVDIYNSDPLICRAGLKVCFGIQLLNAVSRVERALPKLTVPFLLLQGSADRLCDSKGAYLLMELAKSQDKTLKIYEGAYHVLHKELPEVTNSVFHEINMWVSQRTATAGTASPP
Method in brief: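 Hydrolysis of 8 μM 2-arachidonoylglycerol by […] was run for 30 min at RT after a 15 min compound preincubation, in Tris/EDTA/Tween buffer. Test compounds spanned […]. The product was measured by online SPE-MS/MS (transitions 303.1→259.1 and 311.1→267.0), and activity was derived from the arachidonic acid/d8-arachidonic acid signal ratio.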

SMILES | IC50 [nM]
Cn1ncc2c(C3CN(C(=O)N4CC[C@@H]5OCC(=O)N[C@@H]5C4)C3)cccc21 [Example 215, (4aR,8aS)-6-(3-(1-Methyl-1H-indazol-4-yl)azetidine-1-carbonyl)hexahydro-2H-pyrido[4,3-b][1,4]oxazin-3(4H)-one] | 550
O=C1CO[C@H]2CCN(C(=O)N3CC(c4ccc(N5CCC(F)C5)cc4)C3)C[C@H]2N1 (stereo partly drawn) [Example 216, (4aR,8aS)-6-(3-(4-(3-Fluoropyrrolidin-1-yl)phenyl)azetidine-1-carbonyl)hexahydro-2H-pyrido[4,3-b][1,4]oxazin-3(4H)-one] | 23
CC1CCN1c1ccc(C2CN(C(=O)N3CC[C@@H]4OCC(=O)N[C@@H]4C3)C2)cc1 (stereo partly drawn) [Example 217, (4aR,8aS)-6-(3-(4-(2-Methylazetidin-1-yl)phenyl)azetidine-1-carbonyl)hexahydro-2H-pyrido[4,3-b][1,4]oxazin-3(4H)-one] | 6
O=C1CO[C@H]2CCN(C(=O)N3CCC(C(c4ccccc4)c4cccnn4)CC3)C[C@H]2N1 (stereo partly drawn) [Example 218, (4aR,8aS)-6-[4-[Phenyl(pyridazin-3-yl)methyl]piperidine-1-carbonyl]-4,4a,5,7,8,8a-hexahydropyrido[4,3-b][1,4]oxazin-3-one] | 54
O=C1CO[C@H]2CCN(C(=O)N3CCC(c4ccc(OC(F)(F)F)cc4)C3)C[C@H]2N1 (stereo partly drawn) [Example 219, (4aR,8aS)-6-[3-[4-(Trifluoromethoxy)phenyl]pyrrolidine-1-carbonyl]-4,4a,5,7,8,8a-hexahydropyrido[4,3-b][1,4]oxazin-3-one] | 276
Cn1ncc2ccc(C3CN(C(=O)N4CC[C@@H]5OCC(=O)N[C@@H]5C4)C3)cc21 [Example 220, (4aR,8aS)-6-(3-(1-Methyl-1H-indazol-6-yl)azetidine-1-carbonyl)hexahydro-2H-pyrido[4,3-b][1,4]oxazin-3(4H)-one] | 413
O=C1CO[C@H]2CCN(C(=O)N3CC(c4ccc(O)c(Cl)c4)C3)C[C@H]2N1 [Example 223, (4aR,8aS)-6-(3-(3-Chloro-4-hydroxyphenyl)azetidine-1-carbonyl)hexahydro-2H-pyrido[4,3-b][1,4]oxazin-3(4H)-one] | 188
CC1CN(c2ccc(C3CN(C(=O)N4CC[C@@H]5OCC(=O)N[C@@H]5C4)C3)cc2Cl)C1 [Example 224, (4aR,8aS)-6-(3-(3-Chloro-4-(3-methylazetidin-1-yl)phenyl)azetidine-1-carbonyl)hexahydro-2H-pyrido[4,3-b][1,4]oxazin-3(4H)-one] | 6
O=C1CO[C@H]2CCN(C(=O)N3CC(c4ccc(C5COC5)cc4)C3)C[C@H]2N1 [Example 225, (4aR,8aS)-6-[3-[4-(Oxetan-3-yl)phenyl]azetidine-1-carbonyl]-4,4a,5,7,8,8a-hexahydropyrido[4,3-b][1,4]oxazin-3-one] | 100
O=C1CO[C@H]2CCN(C(=O)N3CC(c4ccc(N5CC(F)(F)C5)c(Cl)c4)C3)C[C@H]2N1 [Example 226, (4aR,8aS)-6-(3-(3-Chloro-4-(3,3-difluoroazetidin-1-yl)phenyl)azetidine-1-carbonyl)hexahydro-2H-pyrido[4,3-b][1,4]oxazin-3(4H)-one] | 19
CC1CN(c2cc(C3CN(C(=O)N4CC[C@@H]5OCC(=O)N[C@@H]5C4)C3)ccc2OC(F)(F)F)C1 [Example 227, (4aR,8aS)-6-(3-(3-(3-Methylazetidin-1-yl)-4-(trifluoromethoxy)phenyl)azetidine-1-carbonyl)hexahydro-2H-pyrido[4,3-b][1,4]oxazin-3(4H)-one] | 14
O=C1CO[C@H]2CCN(C(=O)N3CC(c4ccc(N5CC6CC(C6)C5)cc4)C3)C[C@H]2N1 [Example 230, (4aR,8aS)-6-[3-[4-(3-Azabicyclo[3.1.1]heptan-3-yl)phenyl]azetidine-1-carbonyl]-4,4a,5,7,8,8a-hexahydropyrido[4,3-b][1,4]oxazin-3-one] | 0.2
CC1C(c2ccc(OC(F)(F)F)cc2)CN1C(=O)N1CC[C@@H]2OCC(=O)N[C@@H]2C1 (stereo partly drawn) [Example 231, (4aR,8aS)-6-(2-Methyl-3-(4-(Trifluoromethoxy)phenyl)azetidine-1-carbonyl)hexahydro-2H-pyrido[4,3-b][1,4]oxazin-3(4H)-one] | 114
CC1(C)COc2cc(C3CN(C(=O)N4CC[C@@H]5OCC(=O)N[C@@H]5C4)C3)ccc21 [Example 232, (4aR,8aS)-6-(3-(3,3-Dimethyl-2,3-dihydrobenzofuran-6-yl)azetidine-1-carbonyl)hexahydro-2H-pyrido[4,3-b][1,4]oxazin-3(4H)-one] | 7
O=C1CO[C@H]2CCN(C(=O)N3CCC(c4cc(Cl)cc(OCC(F)(F)F)c4)C3)C[C@H]2N1 (stereo partly drawn) [Example 233, (4aR,8aS)-6-(3-(3-Chloro-5-(2,2,2-trifluoroethoxy)phenyl)pyrrolidine-1-carbonyl)hexahydro-2H-pyrido[4,3-b][1,4]oxazin-3(4H)-one] | 61
COC(=O)C(C)(C)c1ccc(C2CN(C(=O)N3CC[C@@H]4OCC(=O)N[C@@H]4C3)C2)cc1 [Example 234, Methyl 2-methyl-2-(4-(1-((4aR,8aS)-3-Oxooctahydro-2H-pyrido[4,3-b][1,4]oxazine-6-carbonyl)azetidin-3-yl)phenyl)propanoate] | 2
O=C1CO[C@H]2CCN(C(=O)N3CCC(c4cc(Cl)cc(Cl)c4)C3)C[C@H]2N1 (stereo partly drawn) [Example 235, (4aR,8aS)-6-(3-(3,5-Dichlorophenyl)pyrrolidine-1-carbonyl)hexahydro-2H-pyrido[4,3-b][1,4]oxazin-3(4H)-one] | 243
COC1(C)CN(c2ccc(C3CN(C(=O)N4CC[C@@H]5OCC(=O)N[C@@H]5C4)C3)cc2)C1 [Example 236, (4aR,8aS)-6-(3-(4-(3-Methoxy-3-methylazetidin-1-yl)phenyl)azetidine-1-carbonyl)hexahydro-2H-pyrido[4,3-b][1,4]oxazin-3(4H)-one] | 15
CC(C)(C)OC(=O)NCCOc1cccc(C(c2ccccc2)C2CCN(C(=O)N3CC[C@@H]4OCC(=O)N[C@@H]4C3)CC2)c1 (stereo partly drawn) [Example 237, tert-Butyl (2-(3-((1-((4aR,8aS)-3-oxooctahydro-2H-pyrido[4,3-b][1,4]oxazine-6-carbonyl)piperidin-4-yl)(phenyl)methyl)phenoxy)ethyl)carbamate] | 1
COc1cc(C2CN(C(=O)N3CC[C@@H]4OCC(=O)N[C@@H]4C3)C2)ccc1C(C)(C)C [Example 240, (4aR,8aS)-6-(3-(4-(tert-Butyl)-3-methoxyphenyl)azetidine-1-carbonyl)hexahydro-2H-pyrido[4,3-b][1,4]oxazin-3(4H)-one] | 2
Cn1ncc2cc(C3CN(C(=O)N4CC[C@@H]5OCC(=O)N[C@@H]5C4)C3)ccc21 [Example 241, (4aR,8aS)-6-(3-(1-Methyl-1H-indazol-5-yl)azetidine-1-carbonyl)hexahydro-2H-pyrido[4,3-b][1,4]oxazin-3(4H)-one] | 245
CCCc1ccc(C2CN(C(=O)N3CC[C@@H]4OCC(=O)N[C@@H]4C3)C2)cc1 [Example 242, (4aR,8aS)-6-(3-(4-Propylphenyl)azetidine-1-carbonyl)hexahydro-2H-pyrido[4,3-b][1,4]oxazin-3(4H)-one] | 2
O=C1CO[C@H]2CCN(C(=O)N3CC(c4ccc(OC(F)(F)F)c(C(F)(F)F)c4)C3)C[C@H]2N1 [Example 243, (4aR,8aS)-6-(3-(4-(Trifluoromethoxy)-3-(trifluoromethyl)phenyl)azetidine-1-carbonyl)hexahydro-2H-pyrido[4,3-b][1,4]oxazin-3(4H)-one] | 10
O=C1CO[C@H]2CCN(C(=O)N3CC(c4ccc(OCC5(C(F)(F)F)CC5)cc4)C3)C[C@H]2N1 [Example 244, (4aR,8aS)-6-[3-[4-[[1-(Trifluoromethyl)cyclopropyl]methoxy]phenyl]azetidine-1-carbonyl]-4,4a,5,7,8,8a-hexahydropyrido[4,3-b][1,4]oxazin-3-one] | 0.3
CC(C)(c1ccc(C2CN(C(=O)N3CC[C@@H]4OCC(=O)N[C@@H]4C3)C2)cc1)C(F)(F)F [Example 245, (4aR,8aS)-6-[3-[4-(2,2,2-Trifluoro-1,1-dimethyl-ethyl)phenyl]azetidine-1-carbonyl]-4,4a,5,7,8,8a-hexahydropyrido[4,3-b][1,4]oxazin-3-one] | 0.4
O=C1CO[C@H]2CCN(C(=O)N3CC(c4ccc(CCCF)cc4)C3)C[C@H]2N1 [Example 247, (4aR,8aS)-6-[3-[4-(3-Fluoropropyl)phenyl]azetidine-1-carbonyl]-4,4a,5,7,8,8a-hexahydropyrido[4,3-b][1,4]oxazin-3-one] | 6
COc1cc(C2CN(C(=O)N3CC[C@@H]4OCC(=O)N[C@@H]4C3)C2)ccc1C [Example 250, (4aR,8aS)-6-[3-(3-Methoxy-4-methyl-phenyl)azetidine-1-carbonyl]-4,4a,5,7,8,8a-hexahydropyrido[4,3-b][1,4]oxazin-3-one] | 106
Cn1nc(OC(c2ccc(F)cc2)C2CCN(C(=O)N3CC[C@@H]4OCC(=O)N[C@@H]4C3)CC2)cc1C(F)(F)F (stereo partly drawn) [Example 251, (4aR,8aS)-6-(4-((4-Fluorophenyl)((1-methyl-5-(trifluoromethyl)-1H-pyrazol-3-yl)oxy)methyl)piperidine-1-carbonyl)hexahydro-2H-pyrido[4,3-b][1,4]oxazin-3(4H)-one] | 1
